The experiment addresses PARP7 (Homo sapiens (Human), UniProt Q7Z3E1). Kind of experiment: Enzymatic assay for inhibition of PARP7: TR-FRET displacement of biotinylated Probe A from the TIPARP active site. The class given is binding. The following applies: Table A-1. The method, boiled down:
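Titrated compounds compete with the biotinylated probe; after an additional 30 min incubation at 25° C, time-delayed fluorescence (90 μs) is measured. Inhibition curves use a Hill coefficient that normally floats but may be held at 1.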
A general note: TR-FRET usually uses a lanthanide donor and a delayed reading to cut background.
PARP7, sequence (Q7Z3E1 whole entry): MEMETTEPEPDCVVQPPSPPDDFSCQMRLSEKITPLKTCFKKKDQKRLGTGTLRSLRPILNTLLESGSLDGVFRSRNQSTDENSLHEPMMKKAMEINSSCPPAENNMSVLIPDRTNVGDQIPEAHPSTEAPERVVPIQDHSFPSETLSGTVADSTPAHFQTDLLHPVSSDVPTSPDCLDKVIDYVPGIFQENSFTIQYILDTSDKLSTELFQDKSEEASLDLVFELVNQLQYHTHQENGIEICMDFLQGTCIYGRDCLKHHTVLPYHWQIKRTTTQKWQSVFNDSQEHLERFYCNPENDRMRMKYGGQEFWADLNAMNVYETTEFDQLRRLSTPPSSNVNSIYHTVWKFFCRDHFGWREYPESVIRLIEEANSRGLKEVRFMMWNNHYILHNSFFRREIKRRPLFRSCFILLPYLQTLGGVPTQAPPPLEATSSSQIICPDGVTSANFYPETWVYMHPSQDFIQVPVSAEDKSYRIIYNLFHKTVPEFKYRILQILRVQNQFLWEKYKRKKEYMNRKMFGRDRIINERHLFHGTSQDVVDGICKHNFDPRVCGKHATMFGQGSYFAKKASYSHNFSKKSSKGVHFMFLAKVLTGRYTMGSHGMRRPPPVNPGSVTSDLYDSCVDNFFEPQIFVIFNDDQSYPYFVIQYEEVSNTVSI
For `CC(=O)N1CCC(Oc2cc3c(cn2)CN(c2cn[nH]c(=O)c2C(F)(F)F)C3)CC1` [Example 13], the IC50 (usually the concentration needed to halve the response being measured) was less than 100 nM.
In the case of `CN(C)CCOc1cc2c(cc1F)CN(c1cn[nH]c(=O)c1C(F)(F)F)C2` [Example 14, 5-[5-[2-(dimethylamino)ethoxy]-6-fluoro-2,3-dihydro-1H-isoindol-2-yl]-4-(trifluoromethyl)-2,3-dihydropyridazin-3-one; formic acid] it was less than 100 nM.
In the case of `O=c1[nH]ncc(N2Cc3ccnc(OCc4cccnc4)c3C2)c1C(F)(F)F` [Example 15, 5-[4-(pyridin-3-ylmethoxy)-1H,2H,3H-pyrrolo[3,4-c]pyridin-2-yl]-4-(trifluoromethyl)-2,3-dihydropyridazin-3-one] it was less than 100 nM; in that of `O=c1[nH]ncc(N2Cc3ccnc(OC4CCNCC4)c3C2)c1C(F)(F)F` [Example 16, 5-[4-(piperidin-4-yloxy)-1H,2H,3H-pyrrolo[3,4-c]pyridin-2-yl]-4-(trifluoromethyl)-2,3-dihydropyridazin-3-one], 100 to 1000 nM; in that of `O=c1[nH]ncc(N2Cc3ccc(CNc4ccncc4)cc3C2)c1C(F)(F)F` [Example 17, 5-(5-[[(pyridin-4-yl)amino]methyl]-2,3-dihydro-1H-isoindol-2-yl)-4-(trifluoromethyl)-2,3-dihydropyridazin-3-one], less than 100 nM.
In the case of `O=c1[nH]ncc(N2Cc3cc(F)c(OCCN4CCOCC4)cc3C2)c1C(F)(F)F` [Example 19, 5-[5-fluoro-6-[2-(morpholin-4-yl)ethoxy]-2,3-dihydro-1H-isoindol-2-yl]-4-(trifluoromethyl)-2,3-dihydropyridazin-3-one] it was less than 100 nM; in that of `O=c1[nH]ncc(N2Cc3cc(F)c(OCC4CCNCC4)cc3C2)c1C(F)(F)F` [Example 20, 5-[5-fluoro-6-(piperidin-4-ylmethoxy)-2,3-dihydro-1H-isoindol-2-yl]-4-(trifluoromethyl)-2,3-dihydropyridazin-3-one], less than 100 nM; in that of `CC(=O)N1CCC(COc2cc3c(cc2F)CN(c2cn[nH]c(=O)c2C(F)(F)F)C3)CC1` [Example 21, 5-[5-[(1-acetylpiperidin-4-yl)methoxy]-6-fluoro-2,3-dihydro-1H-isoindol-2-yl]-4-(trifluoromethyl)-2,3-dihydropyridazin-3-one], less than 100 nM.
The compound `CN1CCC(COc2cc3c(cc2F)CN(c2cn[nH]c(=O)c2C(F)(F)F)C3)CC1` [Example 22, 5-[5-fluoro-6-[(1-methylpiperidin-4-yl)methoxy]-2,3-dihydro-1H-isoindol-2-yl]-4-(trifluoromethyl)-2,3-dihydropyridazin-3-one] registered a half-inhibitory concentration (IC50) of less than 100 nM.
With `O=c1[nH]ncc(N2Cc3cc(F)c(CNC4CCNCC4)cc3C2)c1C(F)(F)F` [Example 23, 5-(5-fluoro-6-[[(piperidin-4-yl)amino]methyl]-2,3-dihydro-1H-isoindol-2-yl)-4-(trifluoromethyl)-2,3-dihydropyridazin-3-one] the figure was less than 100 nM.
With `CC(=O)N1CCC(NCc2cc3c(cc2F)CN(c2cn[nH]c(=O)c2C(F)(F)F)C3)CC1` [Example 24, 5-(5-[[(1-acetylpiperidin-4-yl)amino]methyl]-6-fluoro-2,3-dihydro-1H-isoindol-2-yl)-4-(trifluoromethyl)-2,3-dihydropyridazin-3-one] the figure was less than 100 nM; with `CN1CCC(NCc2cc3c(cc2F)CN(c2cn[nH]c(=O)c2C(F)(F)F)C3)CC1` [Example 25, 5-(5-fluoro-6-[[(1-methylpiperidin-4-yl)amino]methyl]-2,3-dihydro-1H-isoindol-2-yl)-4-(trifluoromethyl)-2,3-dihydropyridazin-3-one], less than 100 nM.
In the case of `O=c1[nH]ncc(N2Cc3cc(F)c(N4CCOCC4)cc3C2)c1C(F)(F)F` [Example 26, 5-[5-fluoro-6-(morpholin-4-yl)-2,3-dihydro-1H-isoindol-2-yl]-4-(trifluoromethyl)-2,3-dihydropyridazin-3-one] it was less than 100 nM.

These data come from US10550105B2 (Ribon Therapeutics Inc., priority 2018, dated 2020).
